Assay results: PubChem BioAssay AID2060491 (Molecular Pharmacology Branch, DTP, NCI, 2025)

Test system: 857933-349-R-J2-PDC complex spheroids, viability
Assay: Anticancer human tumor 857933-349-R-J2-PDC patient-derived colon adenocarcinoma cell line growth inhibition [GQUAD]
Settings: for IC50: curve of first compound; for viability, T/C: stronger effect = lower value
Excerpt: DNA G-quadruplex Stabilizer Agents in Combinations in Complex Spheroids
A high-throughput screen of multi-cell type tumor spheroids was designed to identify active combinations of DNA G-quadruplex stabilizer agents and targeted small molecules. Complex spheroids include a stromal component modeled by human endothelial cells (HUVEC) and fibroblasts modeled by human mesenchymal stem cells (MSCs). The concentration ranges selected for each drug and investigational agent were based upon clinically achievable concentrations if the clinical Cmax of the agent was known.
Compounds. The drugs and investigational agents: pidnarulex (CX-5461; NSC782164), APTO-253 (NSC789042), BRACO-19 (NSC847499), peposertib (NSC802822), ceralasertib (NSC780249), elimusertib (NSC800525), camonsertib (NSC841442), AZD-1390 (NSC803789), olaparib (NSC753686), talazoparib (NSC767125), ART-558 (NSC835418), sotorasib (NSC818433), MRTX-1133 (NSC836407), SN-38 (NSC673596), topotecan (NSC609699), etoposide (NSC141540), doxorubicin (NSC123127), gemcitabine (NSC613327), 5-fluorouracil (NSC19893), paclitaxel (NSC125973), vemurafenib (NSC761431), panobinostat (NSC761190), R-306465 (JNJ-16241199; NSC773264), adavosertib (NSC754352), TP-3654 (NSC805149), carboplatin (NSC241240), KSQ-4279 (NSC840948), and staurosporine (NSC755774) were obtained from the National Cancer Institute (NCI) Developmental Therapeutics Program Chemical Repository (34). The FDA-approved anticancer drug set is available from the NCI Developmental Therapeutics Program. […] The stock solutions were prepared in dimethyl sulfoxide (DMSO, Sigma-Aldrich, St. Louis, MO, cat. D2650) at 800-fold the tested concentration and stored at -70 degrees C prior to their use. All drugs and investigational agents were tested over a range starting from a high concentration at or near the clinical Cmax and decreasing in half-log increments. If the clinical Cmax for an agent had not been determined, the highest concentration tested was 10 microM.
2.3 Cell Culture. All cells were maintained in an incubator at 37 degrees C and 5% CO2 with 95% humidity. The PDC lines were cultured according to standard operating procedures established by the NCI PDMR. All PDCs were thawed and cultured in Matrigel-coated flasks prepared with a working solution of 1X Ham's F-12 nutrient mix, without supplementation (Invitrogen, cat. 11765054), 100 U/mL penicillin-streptomycin (Invitrogen, cat. 15140122), and 2.5% Matrigel (Corning Inc., cat. 354248) for the first three passages. The 857933-349-R-J2-PDC line was cultured in 6C/Colon 1B media, which includes advanced DMEM/F-12 (Thermo Fisher Scientific, cat. 12634028), 10 mM HEPES (Thermo Fisher Scientific, cat. 15630080), 1X GlutaMAX supplement (Thermo Fisher Scientific, cat. 35050061), 0.1 mg/mL primocin (InvivoGen, cat. ant-pm-2), 10% defined fetal bovine serum, heat inactivated (HyClone Laboratories Inc., cat. SH30070.03HI), 50% L-WRN conditioned media (ATCC, cat. CRL-3276), 1.25 mM N-Acetyl-L-cysteine (Sigma-Aldrich, cat. A9165), 10 mM nicotinamide (Sigma-Aldrich, cat. N0636), 1X B-27 supplement (Thermo Fisher Scientific, cat. 17504044), 1X N-2 supplement (Thermo Fisher Scientific, cat. 17502048), 10 microM Y-27632 dihydrochloride (Tocris Bioscience, cat. 1254), and 50 ng/mL human EGF recombinant protein (Thermo Fisher Scientific, cat. PHG0311). The 485176-168-R4-J1-PDC line was cultured in Panc media, which includes all 6C/Colon 1B media components plus 100 ng/mL human FGF-10 (Thermo Fisher Scientific, cat. 100-26), 500 nM SB-431542 (Selleckchem, cat. S1067), and gastrin (Tocris, cat. 3006).
[…]
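Also: spheroids exposed to compounds for one week before readout.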
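For viability, T/C in this document: percent viability relative to vehicle DMSO wells taken as 100%.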

For `CC1COCCN1c1cc(-c2ccnn2C)c2ccnc(-c3ccn[nH]3)c2n1` (configuration not stated) + CN(C)c1ccc(Nc2c3ccc(NC(=O)CCN4CCCC4)cc3nc3cc(NC(=O)CCN4CCCC4)ccc23)cc1, the IC50 (second compound 0.0316 µM) was greater than 10 µM, the IC50 (second compound 0.1 µM) was greater than 10 µM and the IC50 (second compound 0.316 µM) was greater than 10 µM. For the same compound, the IC50 (second compound 1 µM) was greater than 10 µM, the IC50 (second compound 3.16 µM) was greater than 10 µM and the IC50 (second compound 10 µM) was 2.95 µM. For the same compound, the viability, T/C (second compound 0.0316 µM, first compound 0.0316 µM) was 98.3%, the viability, T/C (second compound 0.0316 µM, first compound 0.1 µM) was 80.7% and the viability, T/C (second compound 0.0316 µM, first compound 0.316 µM) was 78%. The viability, T/C (second compound 0.0316 µM, first compound 1 µM) was 60.8%, the viability, T/C (second compound 0.0316 µM, first compound 3.16 µM) was 56.2% and the viability, T/C (second compound 0.0316 µM, first compound 10 µM) was 62.5%. The viability, T/C (second compound 0.1 µM, first compound 0.0316 µM) was 96.1%, the viability, T/C (second compound 0.1 µM, first compound 0.1 µM) was 82.5% and the viability, T/C (second compound 0.1 µM, first compound 0.316 µM) was 73.5%. It also gave a viability, T/C (second compound 0.1 µM, first compound 1 µM) of 58.3%, a viability, T/C (second compound 0.1 µM, first compound 3.16 µM) of 54.3% and a viability, T/C (second compound 0.1 µM, first compound 10 µM) of 69.7%. For the same compound, the viability, T/C (second compound 0.316 µM, first compound 0.0316 µM) was 90.8%, the viability, T/C (second compound 0.316 µM, first compound 0.1 µM) was 80.8% and the viability, T/C (second compound 0.316 µM, first compound 0.316 µM) was 74.7%. It also gave a viability, T/C (second compound 0.316 µM, first compound 1 µM) of 59.4%, a viability, T/C (second compound 0.316 µM, first compound 3.16 µM) of 58.6% and a viability, T/C (second compound 0.316 µM, first compound 10 µM) of 63.1%. For the same compound, the viability, T/C (second compound 1 µM, first compound 0.0316 µM) was 93.5%, the viability, T/C (second compound 1 µM, first compound 0.1 µM) was 73.4% and the viability, T/C (second compound 1 µM, first compound 0.316 µM) was 73.8%. It also gave a viability, T/C (second compound 1 µM, first compound 1 µM) of 55.9%, a viability, T/C (second compound 1 µM, first compound 3.16 µM) of 58.4% and a viability, T/C (second compound 1 µM, first compound 10 µM) of 54.3%. For the same compound, the viability, T/C (second compound 3.16 µM, first compound 0.0316 µM) was 85.9%, the viability, T/C (second compound 3.16 µM, first compound 0.1 µM) was 71.8% and the viability, T/C (second compound 3.16 µM, first compound 0.316 µM) was 66.1%. It also gave a viability, T/C (second compound 3.16 µM, first compound 1 µM) of 53.1%, a viability, T/C (second compound 3.16 µM, first compound 3.16 µM) of 58.9% and a viability, T/C (second compound 3.16 µM, first compound 10 µM) of 52.4%. For the same compound, the viability, T/C (second compound 10 µM, first compound 0.0316 µM) was 75.8%, the viability, T/C (second compound 10 µM, first compound 0.1 µM) was 70.8% and the viability, T/C (second compound 10 µM, first compound 0.316 µM) was 61.9%. The viability, T/C (second compound 10 µM, first compound 1 µM) was 55.2%, the viability, T/C (second compound 10 µM, first compound 3.16 µM) was 49.6% and the viability, T/C (second compound 10 µM, first compound 10 µM) was 44.6%.
